Measured values as given in publication PMC9963287 (Viruses, 2023).

Experiments:
[1] = set-up: method as in earlier work; settings: in animals; cited from earlier work
[2] = target: T1, M^pro (Severe acute respiratory syndrome coronavirus 2, UniProt P0DTD1); settings: at a concentration of 50 μM; cited from earlier work
[3] = target: SARS-CoV-2 M^pro (Severe acute respiratory syndrome coronavirus 2, UniProt P0DTD1); experiment: In vitro FRET M^pro inhibition assay; format: biochemical; settings: 50 nM M^pro; for IC50: FRET assay, inhibitor 3.125-100 μM, read-out: IC50 against M^pro enzymatic activity; for inhibition at 50 µM: initial screen at 50 μM compound, read-out: inhibitory activity against M^pro
[4] = target: T1, M^pro; experiment: Bio-layer interferometry binding kinetics assay; set-up: species or system SARS-CoV-2; settings: BLI, 1:1 binding model, 30 °C; for Kd: KD = koff/kon

In the case of CC(C)CC(NC(=O)OCc1ccccc1)C(=O)NC(CC1CCNC1=O)C(O)S(=O)(=O)O (stereo not shown) [GC376], the side effects [1] is listed as “delayed adult teeth development”.

In the case of CC(O)(CS(=O)(=O)c1ccc(F)cc1)C(=O)Nc1ccc(C#N)c(C(F)(F)F)c1 (stereo not shown) [bicalutamide], the “M^pro inhibitory activity” value [2] is listed as “more than 30%”.

For COc1cccc(Nc2c(C(N)=O)cnc3c(C)cc(S(=O)(=O)c4cccc(C(=O)N(C)C)c4)cc23)c1 [GSK-256066], the “M^pro inhibitory activity” value [2] is given as “more than 30%”.

For O=C(CC[C@@H](C(=O)Nc1cccc([N+](=O)[O-])c1)n1cnc2ccccc2c1=O)Nc1cccc([N+](=O)[O-])c1 [G1], the IC50 [3] was about 20 µM, the inhibition at 50 µM [3] was over 50% and the koff [4] was 0.00325 s⁻¹. The kon [4] was 125 M⁻¹ s⁻¹ and the Kd [4] was 26 µM.

Nc1ccc(OC(=O)CC[C@@H](C(=O)Oc2ccc(N)c([N+](=O)[O-])c2)n2cnc3ccccc3c2=O)cc1[N+](=O)[O-] [G4] gave an IC50 [3] of about 20 µM, an inhibition at 50 µM [3] of over 50% and a koff [4] of 0.413 s⁻¹. It also gave a kon [4] of 16200 M⁻¹ s⁻¹ and a Kd [4] of 25.5 µM.
